Measured values as given in US20050014160A1, “Assays for protease enzyme activity” (priority 2003, published 2005).
Square brackets hold non-standard residues; d marks the D form. Ends that are not written are not given here. Sta = CC(C)C[C@H](N)[C@@H](O)CC(=O)O

Legend:
β-secretase [1] = molecular target: T1, β-secretase (Homo sapiens, UniProt P56817); assay: QTL/QTP assay for β-secretase activity with quencher-tether-biotin peptide substrates; format: biochemical
Method: In a 384-well plate, […] of β-secretase peptide substrate solution of appropriate concentration was mixed with a given amount of β-secretase enzyme in a total volume of […] in assay buffer. In the same plate, a control experiment was also set up where the same amount of peptide was taken in assay buffer but no enzyme was added. The experiments were usually done in triplicate sets for both sample and control. After a given time period of incubation at CRT, the fluorescent polymer in polymer buffer was added to the sample and control wells. The well plate was shaken inside the plate reader and the fluorescence intensity of the samples was measured. The difference in relative fluorescence units between sample and control wells is a measure of enzyme activity.
In the above example, the polymer can include any of the following: • A. Biotin binding protein (BBP) functionalized polystyrene latex carboxylic acid microspheres that are coated with conjugated polymer 1; • B. Solution complex of BBP and biotinylated polymer 2; • C. Microspheres as in A that are doped with a small amount of Phycoerythrin or related fluorescent protein conjugated to biotin; • D. Solution Sensor as in B doped with a small amount of Phycoerythrin or related fluorescent protein conjugated to biotin; and • E. Covalent conjugate of Phycoetythrin or another fluorescent protein and BBP. […]
The assay performance was further improved when the polymer microsphere sample A was doped with a small amount of Biotin-R-Phycoerythrin (Biotin-R-PE) conjugate. In one experiment, BSEC-1, BSEC-3 (a,b) (same peptide substrate synthesized by different vendors) and BSEC-4 were all exposed to β-secretase enzyme under identical conditions to compare their efficiencies in the assay. Polymer sample C was prepared fresh just before the start of experiment by mixing together Polymer A and Biotin-R-PE in a ratio designed to provide 5×10^6 microspheres doped with 100 fmol of Biotin-R-PE per well in a volume of 10 μL.
To 5 μL of a 300 nM solution of each peptide substrate in assay buffer in separate wells was added 10 ng of β-secretase enzyme in 5 μL of assay buffer to start the reactions. Each reaction was performed in triplicate. Controls were performed for each peptide without enzyme in quadruplicate. The samples were incubated at CRT for 60 minutes. At the end of the incubation period, the Biotin-R-PE doped polymer C was added to each well. The plate was shaken in the plate reader for 60 seconds, then probed for emission at 576 nm by exciting at 440 nm and using 475 nm cut-off filter. BSEC-1 gave RFU values of 6270±196 for control and 9645±152 for sample. BSEC-3a gave RFUs of 7656±20 for control and 15022±743 for sample while BSEC-3b gave RFUs of 6054±41 and 12265±913 for control and sample respectively. In comparison, BSEC-4 gave values of 9207±364 and 9732±319 for control and sample respectively.
The polymer solution sensor B was prepared by mixing together 56.5 nmol of Avidin (Biotin binding protein, BBP) and 848 nmol of biotinylated PPE polymer 2 in a total volume of 11.3 μL and incubating at CRT for 24 hours. The polymer and the BBP combine with each other through the biotin-avidin interaction to form stable entities. The solution sensor thus prepared was diluted appropriately with polymer buffer at the beginning of each experiment.
To 5 μL of a 400 nM solution of BSEC-1 in assay buffer in a 384 well plate was added 30 ng of β-secretase dissolved in 5 μL of assay buffer. The mixture was made in triplicate and incubated for 30 minutes at CRT. The control wells contained only peptide and no enzyme. After incubation, a 100-fold dilution of the above solution sensor was added at 20 μL to each well. The plate was shaken inside the microplate reader and the wells were probed by exciting the polymer at 440 nm and measuring emission intensity at 530 run. The control wells gave an average RFU value of 5400±200 and the sample wells containing enzyme gave RFU of 8350±200. […]

[2] = molecular target: Streptavidin-B-Phycoerythrin conjugate (SAv-BPE) (Streptomyces avidinii, UniProt P22629); assay: Superquenching of fluorescent conjugate by β-secretase peptide substrate (Stern-Volmer); conditions: 2.5 nM solution of the fluorescent conjugate SAv-BPE
Text: In another embodiment of the invention, the fluorescent polymer is a biological ensemble comprising phycoerythrin or phycobilisome.

Caspase-3 enzyme = Caspase-3 enzyme (Homo sapiens, UniProt P42574); conditions: Example 10, peptide substrate with Caspase-3 at CRT; control without enzyme remains unchanged
Method: To a known amount of the peptide substrate represented by SEQ ID NO:8 in assay buffer is added a sample solution of Caspase-3 enzyme in one well of a 384-well plate. In another well, the peptide substrate is taken without enzyme. The plate is incubated at CRT and the sample and control wells measured for fluorescence intensity at various time periods. […] An assay of this type is represented in FIG. 3.

β-secretase [3] = molecular target: T1, β-secretase; assay: QTL assay for inhibition of β-secretase activity by a known inhibitor; format: biochemical; conditions: for delta-over-control RFU: BSEC-1 substrate, 30 ng β-secretase, 15 minutes, Polymer A, without inhibitor 4468±85
Text: In another embodiment, the QTL assay is capable of detecting the inhibition of β-secretase activity in unknown samples. Whereas, in the absence of any inhibitory substance in the reaction mixture, the enzyme would cleave a large portion of the reactive tether present, in the presence of an effective inhibitor, the enzyme loses most of its activity. The QTL assay provides evidence of partial or total inhibition of enzyme activity through a lowering or complete lack of “fluorescence recovery” in such samples.
The structure of the statine-derived peptide inhibitor of β-secretase is given below:
STA-200 is a well-known inhibitor of β-secretase activity. To 2.5 μL of an 800 nM solution of BSEC-1 in assay buffer was added 30 ng of β-secretase and the volume made up to a total of 10 μL with assay buffer. In another well, 2.5 μL of 800 nM BSEC-1 solution was incubated with a pre-mixed solution of 2.5 μL of STA-200 solution and 30 ng of β-secretase so that the final volume is again 10 μL. Two control reactions were also set up in separate wells where one had only peptide in assay buffer while the other had peptide and inhibitor incubating in assay buffer. All samples were incubated at CRT for 15 minutes followed by the addition to each of 19.2 μL of Polymer A suspension (1×10^7 microspheres) in polymer buffer. The mixtures were then probed for emission at 530 nm by exciting them at 440 nm and using 475 nm cut-off filter. The mixture of peptide and enzyme alone gave a delta-over-control RFU of 4468±85. In comparison, a mixture of peptide, enzyme and 60 nM STA-200 (600 fmol) gave a delta-over-control RFU of 2746±241 while a mixture containing 250 nM STA-200 (2.5 pmol) gave a corresponding value of only 865±178.

[4] = Example 7: 300 nM substrate, 20 ng β-secretase, 30 minutes, SAv-BPE (Polymer E), ex 490 nm/em 576 nm
[5] = Example 7: 300 nM substrate, no enzyme, 30 minutes, SAv-BPE (Polymer E), ex 490 nm/em 576 nm
[6] = Example 3: 300 nM substrate, 10 ng β-secretase, 60 minutes at CRT, Biotin-R-PE doped polymer C, ex 440 nm/em 576 nm
[7] = Example 3: 300 nM substrate, no enzyme, 60 minutes at CRT, Biotin-R-PE doped polymer C, ex 440 nm/em 576 nm

T1 sequence (P56817 46-501): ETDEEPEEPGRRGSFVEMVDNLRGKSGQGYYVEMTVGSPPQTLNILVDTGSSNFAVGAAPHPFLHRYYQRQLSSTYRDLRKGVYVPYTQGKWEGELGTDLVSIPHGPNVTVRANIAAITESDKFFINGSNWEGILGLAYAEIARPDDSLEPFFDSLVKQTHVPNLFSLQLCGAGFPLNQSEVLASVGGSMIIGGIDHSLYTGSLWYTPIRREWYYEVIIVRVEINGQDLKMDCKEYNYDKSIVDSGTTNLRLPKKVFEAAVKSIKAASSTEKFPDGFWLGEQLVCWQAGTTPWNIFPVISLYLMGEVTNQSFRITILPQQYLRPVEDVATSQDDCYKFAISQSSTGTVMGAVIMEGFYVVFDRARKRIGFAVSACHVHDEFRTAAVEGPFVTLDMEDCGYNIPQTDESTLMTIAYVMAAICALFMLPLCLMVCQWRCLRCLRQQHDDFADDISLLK
Caspase-3 enzyme, sequence (P42574 29-175 limits assumed, species assumed): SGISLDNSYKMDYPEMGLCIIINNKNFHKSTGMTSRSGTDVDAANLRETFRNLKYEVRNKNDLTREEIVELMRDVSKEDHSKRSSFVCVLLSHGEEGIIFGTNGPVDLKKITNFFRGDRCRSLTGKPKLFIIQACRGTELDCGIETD
Caspase-3 enzyme, sequence (P42574 176-277 limits assumed, species assumed): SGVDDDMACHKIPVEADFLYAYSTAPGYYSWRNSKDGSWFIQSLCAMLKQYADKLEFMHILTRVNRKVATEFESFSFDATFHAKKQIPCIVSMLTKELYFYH
Streptavidin-B-Phycoerythrin conjugate (SAv-BPE), sequence (P22629 25-183): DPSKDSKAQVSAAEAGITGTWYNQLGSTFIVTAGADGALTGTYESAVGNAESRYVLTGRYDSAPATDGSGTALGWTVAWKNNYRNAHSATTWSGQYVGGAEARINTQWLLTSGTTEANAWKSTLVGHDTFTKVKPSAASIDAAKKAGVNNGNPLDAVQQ
Streptavidin-B-Phycoerythrin conjugate (SAv-BPE), sequence (P11392 whole entry partner): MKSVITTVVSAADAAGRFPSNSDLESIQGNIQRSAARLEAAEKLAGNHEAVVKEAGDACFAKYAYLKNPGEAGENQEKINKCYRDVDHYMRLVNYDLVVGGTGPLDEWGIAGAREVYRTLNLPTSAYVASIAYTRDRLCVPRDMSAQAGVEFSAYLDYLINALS
Streptavidin-B-Phycoerythrin conjugate (SAv-BPE), sequence (P11393 whole entry partner): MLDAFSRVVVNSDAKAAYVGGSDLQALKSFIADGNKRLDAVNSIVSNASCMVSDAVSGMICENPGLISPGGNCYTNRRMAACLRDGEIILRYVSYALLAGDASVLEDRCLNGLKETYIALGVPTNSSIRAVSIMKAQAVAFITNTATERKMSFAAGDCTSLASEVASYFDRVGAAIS

(AZO)-TEEISEVNLDAEFK-(Nε-Biotin) [BSEC-3]
RFU of sample (β-secretase [1]; Example 2: 400 nM substrate, 60 ng β-secretase, ten minutes at CRT, polymer A, ex 440 nm/em 530 nm): 10996±424 RFU | RFU of control (β-secretase [1]; Example 2: 400 nM substrate, no enzyme, ten minutes at CRT, polymer A, ex 440 nm/em 530 nm): 8111±707 RFU | RFU of sample (β-secretase [1]; Example 3: 300 nM substrate, 10 ng β-secretase, 60 minutes at CRT, Biotin-R-PE doped polymer C, ex 440 nm/em 576 nm, listed as BSEC-3a): 15022±743 RFU | RFU of sample (β-secretase [1]; Example 3: 300 nM substrate, 10 ng β-secretase, 60 minutes at CRT, Biotin-R-PE doped polymer C, ex 440 nm/em 576 nm, listed as BSEC-3b): 12265±913 RFU | RFU of control (β-secretase [1]; Example 3: 300 nM substrate, no enzyme, 60 minutes at CRT, Biotin-R-PE doped polymer C, ex 440 nm/em 576 nm, listed as BSEC-3a): 7656±20 RFU | RFU of control (β-secretase [1]; Example 3: 300 nM substrate, no enzyme, 60 minutes at CRT, Biotin-R-PE doped polymer C, ex 440 nm/em 576 nm, listed as BSEC-3b): 6054±41 RFU | average RFU of sample wells (β-secretase [1]; Example 6: 300 nM substrate, 30 ng β-secretase, 30 minutes at CRT, doped solution sensor D, ex 440 nm/em 576 nm): 14500±200 RFU | average RFU of control wells (β-secretase [1]; Example 6: 300 nM substrate, no enzyme, 30 minutes at CRT, doped solution sensor D, ex 440 nm/em 576 nm): 5200±100 RFU | average RFU of enzyme wells (β-secretase [1]; [4]): 18032±228 RFU | average RFU of control wells (β-secretase [1]; [5]): 11639±335 RFU

(AZO)-TKKISEVNLDAEFRK-(Nε-Biotin) [BSEC-4]
RFU of sample (β-secretase [1]; [6]): 9732±319 RFU | RFU of control (β-secretase [1]; [7]): 9207±364 RFU

(QSY-7)-TEEISEVNLDAEFK-(Nε-Biotin) [BSEC-1]
relative fluorescence units (RFU) of sample (β-secretase [1]; Example 1: 400 nM substrate, 20 ng β-secretase, 30 min at CRT, polymer A, ex 420 nm/em 530 nm): 9045±109 RFU | relative fluorescence units (RFU) of control (β-secretase [1]; Example 1: 400 nM substrate, no enzyme, 30 min at CRT, polymer A, ex 420 nm/em 530 nm): 5529±286 RFU | RFU of sample (β-secretase [1]; [6]): 9645±152 RFU | RFU of control (β-secretase [1]; [7]): 6270±196 RFU | RFU of sample wells containing enzyme (β-secretase [1]; Example 5: 400 nM substrate, 30 ng β-secretase, 30 minutes at CRT, solution sensor polymer B, ex 440 nm/em 530 nm): 8350±200 RFU | average RFU of control wells (β-secretase [1]; Example 5: 400 nM substrate, no enzyme, 30 minutes at CRT, solution sensor polymer B, ex 440 nm/em 530 nm): 5400±200 RFU | average RFU of enzyme wells (β-secretase [1]; [4]): 11828±556 RFU | average RFU of control wells (β-secretase [1]; [5]): 7671±286 RFU | delta-over-control RFU, peptide and enzyme alone (β-secretase [1]; Example 8: 2.5 μL of 800 nM substrate, 30 ng β-secretase, no inhibitor, 15 minutes at CRT, Polymer A, ex 440 nm/em 530 nm): 4468±85 RFU | Stem-Volmer quenching constant [2]: ~1e+08 M⁻¹

D-E-V-D-Cyanine [SEQ ID NO:8]
fluorescence intensity of sample with increasing time (Caspase-3 enzyme): increase in fluorescence

KTEISEVN-(Sta)-VAEF-OH (KTEISEVN[Sta]VAEF-OH; N-terminus assumed; SMILES CC[C@H](C)[C@H](NC(=O)[C@H](CCC(=O)O)NC(=O)[C@@H](NC(=O)[C@@H](N)CCCCN)[C@@H](C)O)C(=O)N[C@@H](CO)C(=O)N[C@@H](CCC(=O)O)C(=O)N[C@H](C(=O)N[C@@H](CC(N)=O)C(=O)N[C@@H](CC(C)C)[C@@H](O)CC(=O)N[C@H](C(=O)N[C@@H](C)C(=O)N[C@@H](CCC(=O)O)C(=O)N[C@@H](Cc1ccccc1)C(=O)O)C(C)C)C(C)C) [STA-200]
delta-over-control RFU (β-secretase [3]; 60 nM STA-200 (600 fmol)): 2746±241 RFU | delta-over-control RFU (β-secretase [3]; 250 nM STA-200 (2.5 pmol)): 865±178 RFU | IC50 value (β-secretase [3]; sample incubated for fifteen minutes): in the range of nanomolar concentrations
